By AC50 is commonly meant the midpoint of the concentration-response curve, whichever way the signal moves.

For 27 compounds, AC50 results are on record in US20230104936A1, “TRPML MODULATORS” (Casma Therapeutics, Inc., priority 2019, published 2023).

One assay relates to TFEB. The experiment in a line: TFEB nuclear translocation assay, HeLa wt cells. The following applies: 2 hrs compound treatment, Table 1 does not say HeLa wt or TRPML1 KO. The format is cell-based. As for the experimental part: For the TFEB nuclear translocation assay, HeLa wt or HeLa TRPML1 KO cells were plated at 2700 cells/well into black-walled, 384-well Cell carrier Ultra tissue culture treated plates in complete media and incubated overnight. The next day, cells are treated for 2 hrs with compounds and incubated at 37° C. Cells were then fixed for 30 minutes at room temperature in 4% final PFA and washed five times with 90 μL PBS. PBS is aspirated from the wells and the cells are blocked with 7.5 μL blocking buffer (1:1 PBS/Odyssey block buffer containing 0.1% triton x-100 and 1% goat serum). After 30-60 minutes of block, 7.5 μL of primary anti-TFEB (rabbit) antibody is added for a final dilution of 1:200 antibody in 15 μL blocking buffer. Plates are incubated overnight at 4° C. The following day, plates are washed again into PBS, 90 μL with 5 washes, all PBS is aspirated from the wells and the cells are incubated for 1 hr in 1:1000 goat-anti rabbit Alexa 488 secondary antibody, also containing 10 μg/mL Hoechst 33342. After the 1 hr room temperature incubation, plates are washed a final time into PBS, sealed with foil and imaged with an automated epifluorescence microscopy (PerkinElmer Operetta CLS). Four different fields were imaged per well using ×20 magnification for DAPI and FITC filter sets. Images were quantified using PerkinElmer Harmony software, briefly: apply flatfield correction (basic/advanced) for input images. Use the Find Nuclei building block with channel set at Hoechst to find the nuclei. Use the Find cytoplasm building block with channel set to Alexa 488 to find the cytoplasm. Use select cell region with Channel set at Alexa 488 and region of interest as Nuclei and define outer border at 0 μm and inner at 45 μm to cover complete nuclei. Use select cell region with Channel set at Alexa 488 and region of interest as ring region and define outer border at −5 μm and inner at 0 μm to define a ring around the nucleus. Use the find calculate intensity parameter to calculate intensity of the nuclear region and the ring region. Define results as Number of nuclei and ratio of A/B where A is Intensity of Nuclei and B is intensity of the ring region.
The compound numbers correspond to the compound numbers above in Tables A or B. Compounds having an activity designated as “++++” provided an AC50 of ≤2.00 μM; compounds having an activity designated as “+++” provided an AC50 of 2.01-8.00 μM; compounds having an activity designated as “++” provided an AC50 of 8.01-9.99 μM; and compounds having an activity designated as “+” provided an AC50 of ≥10.00 μM.
For `Cc1ccc(S(=O)(=O)C(C)c2cccc(F)c2N2CCC(CN3C4CCC3COC4)CC2)cc1` (single isomer, unassigned) [Compound A-965, 8-((1-(2-fluoro-6-(1-tosylethyl)phenyl)piperidin-4-yl)methyl)-3-oxa-8-azabicyclo[3.2.1]octane], the AC50 was not below 10000 nM. The same measure, in the same setting: under `C[C@@H]1CN(CC2CCN(c3c(F)cccc3NS(=O)(=O)c3ccc(S(C)(=N)=O)cc3)CC2)C[C@H](C)O1` (single isomer, unassigned) [Compound A-846] stands 2010 to 8000 nM. For `CC(c1cccc(F)c1N1CCCCC1)S(=O)(=O)c1ccc(S(=N)(=O)C(F)F)cc1` (single isomer, unassigned) [Compound A-939, (difluoromethyl)(4-((1-(3-fluoro-2-(piperidin-1-yl)phenyl)ethyl)sulfonyl)phenyl)(imino)-l6-sulfanone], the AC50 lay in the range of 2010 to 8000 nM. Still for that read-out and setting: under `CC(C1CCN(c2c(F)cccc2NS(=O)(=O)c2ccc(S(=N)(=O)N(C)C)cc2)CC1)N1C[C@@H](C)O[C@@H](C)C1` (single isomer, unassigned) [Compound A-871B] stands not above 2000 nM.

Still in this assay, the particulars now being: Homo sapiens, HeLa, 2 h, 2 hrs compound treatment, Table 1 does not say HeLa wt or TRPML1 KO.
`CN(C)S(=O)(=O)c1ccc(S(=O)(=O)Nc2nc(N3CCN(c4ccc(Cl)cc4F)CC3)n(C)n2)cc1` [Compound A-59, N1-(5-(4-(4-chloro-2-fluorophenyl)piperazin-1-yl)-1-methyl-1H-1,2,4-triazol-3-yl)-N4,N4-dimethylbenzene-1,4-disulfonamide] showed an AC50 not below 10000 nM.

`CC1(C)Cc2cc(S(=O)(=O)Nc3ccccc3N3CCCC4(CCCOC4)C3)ccc2O1` (stereo not drawn) [Compound A-632, 2,2-dimethyl-N-(2-{2-oxa-8-azaspiro[5.5]undecan-8-yl}phenyl)-2,3-dihydro-1-benzofuran-5-sulfonamide] yielded a half-maximal activity concentration (AC50) not above 2000 nM. The compound `CC1(C)CC2(CCN(c3ccccc3NS(=O)(=O)c3ccc4c(c3)OC(C)(C)C4)CC2)CO1` [Compound A-720, N-(2-{3,3-dimethyl-2-oxa-8-azaspiro[4.5]decan-8-yl}phenyl)-2,2-dimethyl-2,3-dihydro-1-benzofuran-6-sulfonamide] had an AC50 of 2010 to 8000 nM.

With `CC(C)S(=N)(=O)c1ccc(S(=O)(=O)[C@H](C)c2cccc(F)c2N2CCCCC2)cc1` (stereo partly drawn) [Compound A-922, (4-(((R)-1-(3-fluoro-2-(piperidin-1-yl)phenyl)ethyl)sulfonyl)phenyl)(imino)(isopropyl)-λ^6-sulfanone], the AC50 is not below 10000 nM. On the same count and under the same terms, to `O=S(=O)(Nc1cc(Cl)ccc1N1CC23CCC2(COC3)C1)c1ccc2c(c1)CCC2` (stereo not drawn) [Compound A-344, N-(5-chloro-2-{3-oxa-7-azatricyclo[3.3.2.0^1,^5]decan-7-yl}phenyl)-2,3-dihydro-1H-indene-5-sulfonamide] belongs 2010 to 8000 nM. Same read-out and setting: to `CS(=N)(=O)c1ccc(S(=O)(=O)Nc2ccccc2N2CCC(O)(c3ccc(Cl)cc3F)CC2)cc1` (stereo not drawn) [Compound A-152, N-{2-[4-(4-chloro-2-fluorophenyl)-4-hydroxypiperidin-1-yl]phenyl}-4-[iimino(methyl)oxo-λ^6-sulfanyl]benzene-1-sulfonamide] belongs not below 10000 nM; to `O=S(=O)(c1ccc2c(c1)CCC2)N1Cc2cccc(N3CCOCC3)c2C1` [Compound A-819, 2-(2,3-dihydro-1H-indene-5-sulfonyl)-4-(morpholin-4-yl)-2,3-dihydro-1H-isoindole], not below 10000 nM; to `O=S(=O)(Nc1cccc(Cl)c1N1CCOCC1)c1ccccc1C1CC1` [Compound A-392, N-[3-chloro-2-(morpholin-4-yl)phenyl]-2-cyclopropylbenzene-1-sulfonamide], 2010 to 8000 nM. For `C[C@@H]1CN(CC2CCN(c3c(F)cccc3NS(=O)(=O)c3ccc(C(F)F)cc3)CC2)C[C@H](C)O1` [Compound A-766, 4-(difluoromethyl)-N-[2-(4-{[(2R,6S)-2,6-dimethylmorpholin-4-yl]methyl}piperidin-1-yl)-3-fluorophenyl]benzene-1-sulfonamide], the AC50 is not above 2000 nM. Still for that read-out and setting: to `CN(C)S(=O)(=O)c1ccc(S(=O)(=O)Nc2ccccc2N2CCC(C)(c3ccc(Cl)cc3F)CC2)cc1` [Compound A-204, N4-{2-[4-(4-chloro-2-fluorophenyl)-4-methylpiperidin-1-yl]phenyl}-N1,N1-dimethylbenzene-1,4-disulfonamide] belongs not above 2000 nM; to `COCC1(C)CCN(c2ccccc2NS(=O)(=O)Cc2ccccc2Cl)CC1` [Compound A-601, 1-(2-chlorophenyl)-N-{2-[4-(methoxymethyl)-4-methylpiperidin-1-yl]phenyl}methanesulfonamide], 2010 to 8000 nM; to `CP(C)(=O)c1ccc(S(=O)(=O)Nc2ccccc2N2CCC(c3ccc(F)cc3F)CC2)cc1` [Compound A-176, N-{2-[4-(2,4-difluorophenyl)piperidin-1-yl]phenyl}-4-(dimethylphosphoryl)benzene-1-sulfonamide], not below 10000 nM. Same read-out and setting: to `Cc1nc(C)c(S(=O)(=O)Nc2ccccc2N2CCN(c3ccc(Cl)cc3F)CC2)s1` [Compound A-7, N-{2-[4-(4-chloro-2-fluorophenyl)piperazin-1-yl]phenyl}-2,4-dimethyl-1,3-thiazole-5-sulfonamide] belongs not above 2000 nM; to `CC1(C)CC2(CCN(c3ccccc3NS(=O)(=O)c3ccc4c(c3)CC(C)(C)C4=O)CC2)CO1` [Compound A-638, N-(2-{3,3-dimethyl-2-oxa-8-azaspiro[4.5]decan-8-yl}phenyl)-2,2-dimethyl-1-oxo-2,3-dihydro-1H-indene-5-sulfonamide], 2010 to 8000 nM; to `CC(c1cccc(F)c1N1CCCCC1)S(=O)(=O)c1ccc(S(=O)(=O)N(C)C)nn1` (stereo not drawn) [Compound A-941, 6-{1-[3-fluoro-2-(piperidin-1-yl)phenyl]ethanesulfonyl}-N,N-dimethylpyridazine-3-sulfonamide], 2010 to 8000 nM. `COCC1(C)CCN(c2ccccc2NS(=O)(=O)c2ccc(C3CC3)cc2)CC1` [Compound A-621, 4-cyclopropyl-N-{2-[4-(methoxymethyl)-4-methylpiperidin-1-yl]phenyl}benzene-1-sulfonamide] displayed an AC50 not above 2000 nM. As to `COCC1(C)CCN(c2c(NS(=O)(=O)c3ccc(S(=O)(=O)N(C)C)cc3)ccc3ccnn23)CC1` [Compound A-822, N4-{7-[4-(methoxymethyl)-4-methylpiperidin-1-yl]pyrazolo[1,5-a]pyridin-6-yl}-N1,N1-dimethylbenzene-1,4-disulfonamide], the AC50 is 2010 to 8000 nM.

For the compound `Cc1ccc(S(=O)(=O)Nc2ccccc2N2CCN(C(=O)C(O)c3ccccc3)CC2)cc1` (stereo not drawn) [Compound A-349, N-{2-[4-(2-hydroxy-2-phenylacetyl)piperazin-1-yl]phenyl}-4-methylbenzene-1-sulfonamide], the AC50 was not below 10000 nM. Still for that read-out and setting: under `C[C@@H]1CN(CC2CCN(c3c(F)cccc3NS(=O)(=O)c3ccc(S(=O)(=O)N(C)C)cc3)CC2)[C@@H](C)CO1` [Compound A-865, N4-[2-(4-{[(2R,5S)-2,5-dimethylmorpholin-4-yl]methyl}piperidin-1-yl)-3-fluorophenyl]-N1,N1-dimethylbenzene-1,4-disulfonamide] stands not above 2000 nM; under `C[C@H]1COC[C@H](C)N1CC1CN(c2c(F)cccc2NS(=O)(=O)c2ccc(S(=O)(=O)N(C)C)cc2)C1` (stereo in doubt) [Compound A-916, rel-N4-[2-(3-{[(3R,5R)-3,5-dimethylmorpholin-4-yl]methyl}azetidin-1-yl)-3-fluorophenyl]-N1,N1-dimethylbenzene-1,4-disulfonamide], not below 10000 nM; under `CN(C)S(=O)(=O)c1ccc(S(=O)(=O)Nc2ccccc2N2CC=C(c3ccc(Cl)cc3F)CC2)cc1` [Compound A-32, N4-{2-[4-(4-chloro-2-fluorophenyl)-1,2,3,6-tetrahydropyridin-1-yl]phenyl}-N1,N1-dimethylbenzene-1,4-disulfonamide], not above 2000 nM. The same measure, in the same setting: under `CC(c1cccc(F)c1N1CCC(CN2CC3CCC(C2)C3(F)F)CC1)S(=O)(=O)c1ccc(S(=O)(=O)N(C)C)cc1` (stereo not drawn) [Compound A-985, 4-(1-{2-[4-({8,8-difluoro-3-azabicyclo[3.2.1]octan-3-yl}methyl)piperidin-1-yl]-3-fluorophenyl}ethanesulfonyl)-N,N-dimethylbenzene-1-sulfonamide] stands not above 2000 nM; under `CN(C)S(=O)(=O)c1ccc(S(=O)(=O)Nc2cc(Cl)ccc2N2CCN(C(=O)C(C)(C)C)CC2)cc1` [Compound A-400, N4-{5-chloro-2-[4-(2,2-dimethylpropanoyl)piperazin-1-yl]phenyl}-N1,N1-dimethylbenzene-1,4-disulfonamide], 2010 to 8000 nM.
